This is an account of results in PubChem BioAssay (NCI).

Among the test systems are SN12C renal; HT29 colon; SK-OV-3 ovarian; UACC-62 melanoma; SNB-19 CNS; M14 melanoma; RPMI-8226 leukemia; MDA-MB-231 breast; MCF7 breast.
Holding throughout (assay): NCI anticancer screen, dose series, 48 h

The structures appear in SMILES notation. “And” between values parts separate entries of the source, which are not always exact repeats. Equal values may be shown once.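 In this assay, cells in 96-well plates receive the compound at five concentrations for 48 hours. Endpoints are linearly interpolated between the surrounding concentrations. GI50: concentration for 50% inhibition of growth. The concentration for full growth arrest is given as TGI.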 Bounds are passed on as bounds.

With `C/C(=N\NC(N)=S)C(CN(CC(C)C)CC(C)C)C(=O)Nc1ccc(C)cc1C` (stereo not given), the TGI in the test on SN12C renal, in the test with HT29 colon, in the test with SK-OV-3 ovarian, with UACC-62 melanoma, in the test on SNB-19 CNS and in the test with M14 melanoma was above 100 µM throughout.
With `Nc1c(C(=O)Nc2ccccc2)[n+]([O-])c2ccccc2[n+]1[O-]`, the TGI in the test on SN12C renal is 31.4 µM; in the test with HT29 colon, 37 µM; with SK-OV-3 ovarian, above 100 µM; in the test with UACC-62 melanoma, 22.6 µM; in the test on RPMI-8226 leukemia, above 100 µM; with SNB-19 CNS, 31 µM. In the test on M14 melanoma, this compound returned a TGI of 32.8 µM.
As for `CC(=O)OC1(C)C(=O)OC1(C)C(C)=O` (stereo not given), the TGI in the test on SN12C renal, with HT29 colon, in the test on SK-OV-3 ovarian, with UACC-62 melanoma, with RPMI-8226 leukemia and in the test with SNB-19 CNS was above 100 µM in each case. This compound also yielded a TGI in the test with M14 melanoma above 100 µM.
`CC(C)(C)C(=O)ON1N=NC2C3CC(OCc4ccccc4)(OCc4ccccc4)C(O3)C21` (stereo not given): the TGI is 39.3 µM in the test on SN12C renal; 47.9 µM in the test with HT29 colon; above 100 µM with SK-OV-3 ovarian; 44.9 µM in the test on UACC-62 melanoma; 49.4 µM with RPMI-8226 leukemia; 85.7 µM in the test with M14 melanoma.
As to `O=C1CN(C(=O)c2ccccc2)Cc2[nH]c3ccccc3c21`, the TGI with SN12C renal, in the test on HT29 colon, with SK-OV-3 ovarian, in the test with UACC-62 melanoma, in the test with RPMI-8226 leukemia and in the test on SNB-19 CNS was above 100 µM each time. For the same compound, the TGI in the test on M14 melanoma was above 100 µM.
Consider `Cc1cc(NS(=O)(=O)c2ccc(NC(=O)c3cccc4c(Nc5ccc(S(=O)(=O)N=C(N)N)cc5)c5ccccc5nc34)cc2)no1`, for which the TGI in the test on SN12C renal, in the test with HT29 colon, in the test on SK-OV-3 ovarian, in the test with UACC-62 melanoma, in the test on RPMI-8226 leukemia and in the test on SNB-19 CNS was above 100 µM each time. In addition, the TGI in the test with M14 melanoma is above 100 µM.
On to `CN1CC(C(=O)C2C(=O)c3ccccc3C2=O)C(=O)C(=O)C(C(=O)C2C(=O)c3ccccc3C2=O)C1` (stereo not given), for which the TGI in the test with SN12C renal is above 100 µM; in the test with HT29 colon it was above 100 µM; in the test on SK-OV-3 ovarian it was above 100 µM; in the test on UACC-62 melanoma, above 100 µM; with SNB-19 CNS it was above 100 µM; in the test with M14 melanoma, above 10 µM.
On to `O=C(OCC1CO1)c1cccs1` (stereo not given), for which the TGI with SN12C renal, with HT29 colon, with SK-OV-3 ovarian, with UACC-62 melanoma, in the test on RPMI-8226 leukemia and with SNB-19 CNS was above 100 µM each time. Further, the TGI with M14 melanoma is above 100 µM.
`COc1cccc(Cc2c3cc(OC)ccc3cc[n+]2C)c1`: the TGI in the test on SN12C renal, with HT29 colon, with RPMI-8226 leukemia, with SNB-19 CNS and in the test on M14 melanoma was above 100 µM throughout.
For `COc1cc2c(cc1O)CC13CCC(=O)N1CCc1cc(OC)c(O)c-2c13` (stereo not given), the TGI in the test on SN12C renal, in the test on HT29 colon, in the test with UACC-62 melanoma, in the test with RPMI-8226 leukemia, with SNB-19 CNS and with M14 melanoma was above 68.1 µM throughout.
As to `CCOC(=O)C1SC(=Nc2ccc(Cl)c(Cl)c2)N=C1C` (stereo not given), the TGI with SN12C renal was 53 µM; with HT29 colon, 66.8 µM; in the test with SK-OV-3 ovarian it was above 100 µM; in the test with UACC-62 melanoma, above 100 µM; in the test with RPMI-8226 leukemia, 56.9 µM; in the test on SNB-19 CNS, above 100 µM. The same compound displayed a TGI in the test on M14 melanoma above 100 µM.
For the compound `S=C1Nc2ccc(Cl)cc2C2(c3ccccc3)N3CCN=C3NN12` (stereo not given), the GI50 in the test with SN12C renal was 35.3 µM; with HT29 colon, 28.1 µM; in the test with MDA-MB-231 breast it was 32.5 µM; in the test with SK-OV-3 ovarian it was above 100 µM; in the test with UACC-62 melanoma, 29.3 µM; with RPMI-8226 leukemia it was 21.7 µM. Also, the GI50 is 36.9 µM in the test on SNB-19 CNS, 39.9 µM in the test with M14 melanoma and 27.4 µM in the test on MCF7 breast. Also, the TGI is above 100 µM in the test with SN12C renal; above 100 µM in the test with HT29 colon; above 100 µM in the test on MDA-MB-231 breast; above 100 µM in the test on SK-OV-3 ovarian; above 100 µM in the test on UACC-62 melanoma; 57.3 µM with RPMI-8226 leukemia. Further, the TGI with SNB-19 CNS, in the test on M14 melanoma and in the test on MCF7 breast was above 100 µM in each case.
With `CCOC(=O)C(=Cc1ccc(C(=O)OC)cc1)C(=O)OCC`, the TGI in the test on SN12C renal was 5 µM; in the test on HT29 colon, 18.1 µM; in the test on SK-OV-3 ovarian, 26.4 µM; in the test on UACC-62 melanoma it was 5.47 µM; with RPMI-8226 leukemia it was 4.73 µM; with SNB-19 CNS, 6.47 µM. This compound also registered a TGI in the test on M14 melanoma of 3.36 µM.
As for `COc1ccccc1NC(=O)C1=C(C)NC(C)=C(C(=O)Nc2ccccc2OC)C1c1ccc(C)cc1`, the TGI in the test on SN12C renal, with HT29 colon, in the test on SK-OV-3 ovarian, in the test with UACC-62 melanoma, with RPMI-8226 leukemia and in the test with SNB-19 CNS was above 100 µM each time. This compound displayed a TGI with M14 melanoma above 100 µM.
In the case of `CC(=O)CCCCO`, the TGI with SN12C renal, with HT29 colon, in the test on SK-OV-3 ovarian, with UACC-62 melanoma, with RPMI-8226 leukemia and in the test with SNB-19 CNS was above 100 µM each time. In the test on M14 melanoma, this compound gave a TGI above 100 µM.
Take `COc1ccc(/C=C/C(=O)Oc2cc(O)cc(O)c2)cc1`: the TGI with SN12C renal was above 100 µM; in the test on HT29 colon, above 100 µM; in the test with MDA-MB-231 breast, above 100 µM; with SK-OV-3 ovarian, above 100 µM; with UACC-62 melanoma, above 100 µM; in the test on RPMI-8226 leukemia, 42.4 µM. Moreover, the TGI in the test with SNB-19 CNS was above 100 µM; with M14 melanoma it was above 100 µM; in the test on MCF7 breast, 71.7 µM.
Turning to `CCN(CCCl)CCCNc1c2ccccc2nc2ccc(OC)cc12`, the GI50 in the test with SN12C renal was 274 µM; with HT29 colon, 82.3 µM; in the test with SK-OV-3 ovarian it was 446 µM; in the test on UACC-62 melanoma it was 255 µM; in the test on SNB-19 CNS it was 205 µM; in the test with M14 melanoma it was 213 µM.
In the case of `NC(=O)C(c1ccccc1)N1CCOCC1` (stereo not given), the TGI in the test on SN12C renal, in the test with HT29 colon, with SK-OV-3 ovarian, in the test with UACC-62 melanoma, in the test with RPMI-8226 leukemia and in the test with M14 melanoma was above 100 µM each time.
As for `CCSC1=C(C)N(C=NC(C)(C)C)CC1`, the TGI with SN12C renal, with HT29 colon, in the test with SK-OV-3 ovarian, with UACC-62 melanoma, with SNB-19 CNS and in the test on M14 melanoma was above 100 µM in each case.
`CC(=O)OCC1OC(OC2CC3C(C)(C)C(O)CC[C@]3(C)C3CCC45CC4(CC[C@H]5C(C)CC(O)C4OC4(C)C)[C@]23C)C(O)C(O)C1O` (stereo not given in full): the TGI in the test on SN12C renal is 15.2 µM and 21.6 µM; with HT29 colon it was 15.7 µM and 27.7 µM; with SK-OV-3 ovarian, 15 µM and 29.2 µM; in the test with UACC-62 melanoma it was 14.2 µM and 17.3 µM; in the test with RPMI-8226 leukemia, 2.41 µM and 7.16 µM; in the test with SNB-19 CNS it was 15 µM and 16.9 µM. The TGI with M14 melanoma was 16 µM and 17.2 µM. Besides, the GI50 with HT29 colon was 12.9 µM; in the test with SK-OV-3 ovarian, 15.7 µM; with UACC-62 melanoma it was 4.99 µM; with RPMI-8226 leukemia, 2.49 µM; in the test on SNB-19 CNS, 5.14 µM; with M14 melanoma it was 5.37 µM.
In the case of `O=C(CC(=O)N1N=C(N2c3ccccc3Sc3ccccc32)CC1c1ccccc1)Nc1ccc(Cl)cc1` (stereo not given), the TGI in the test with SN12C renal, in the test on HT29 colon, in the test on SK-OV-3 ovarian, with UACC-62 melanoma, in the test with SNB-19 CNS and in the test with M14 melanoma was above 100 µM in each case.
For the compound `CC1=CCC23C(C1)OC(Br)(C=CC2(C)O)C3(C)C` (stereo not given), the TGI with SN12C renal, in the test with HT29 colon and with UACC-62 melanoma was above 100 µM each time.
In the case of `c1ccc2c(c1)[nH]c1cnc3c4cccnc4[nH]c3c12`, the TGI with SN12C renal was 34.1 µM; with HT29 colon, 34.6 µM; with UACC-62 melanoma it was 31.1 µM; with RPMI-8226 leukemia, 58.5 µM; in the test with SNB-19 CNS, 37.3 µM; with M14 melanoma, 30.1 µM.
As to `O=C1c2c(n(Cc3ccccc3)c(=O)n2Cc2ccccc2)C(=O)N1Cc1ccccc1`, the TGI with SN12C renal, in the test with HT29 colon, with SK-OV-3 ovarian, in the test on UACC-62 melanoma, in the test with RPMI-8226 leukemia and in the test on SNB-19 CNS was above 100 µM in each case. The TGI in the test on M14 melanoma is above 100 µM.
Take `Fc1ccc(C2SCc3nc4ccccc4n32)cc1` (stereo not given): the TGI is above 100 µM in the test on SN12C renal; above 100 µM in the test with HT29 colon; above 100 µM in the test on SK-OV-3 ovarian; above 100 µM in the test with RPMI-8226 leukemia; 9.64 µM in the test with SNB-19 CNS; above 100 µM in the test with M14 melanoma.
Consider `O=C(C(=O)N1CC2C=CC1CC2)c1c[nH]c2ccccc12` (stereo not given), for which the TGI with SN12C renal, in the test with HT29 colon, in the test on SK-OV-3 ovarian, in the test with UACC-62 melanoma, with RPMI-8226 leukemia and with SNB-19 CNS was above 100 µM throughout. Besides, the TGI in the test with M14 melanoma is above 100 µM.
